Experimental data reported in ChEMBL document CHEMBL1671626, “In vitro profiling of ceftaroline against a collection of recent bacterial clinical isolates from across the United States” (2008).
Converted amounts (≈) assume the structure as drawn.

Key:
Type in all cases: functional
Staphylococcus aureus [1] = test: Antibacterial activity against methicillin-susceptible Staphylococcus aureus assessed as resistant isolates by CLSI M7-A7 broth microdilution method
Moraxella catarrhalis [2] = test: Antibacterial activity against beta lactamase-positive Moraxella catarrhalis by CLSI M7-A7 broth microdilution method
Escherichia coli [3] = test: Antibacterial activity against ceftazidime-susceptible Escherichia coli assessed as susceptible isolates by CLSI M7-A7 broth microdilution method
Moraxella catarrhalis [4] = test: Antibacterial activity against beta lactamase-positive Moraxella catarrhalis assessed as susceptible isolates by CLSI M7-A7 broth microdilution method
Klebsiella pneumoniae [5] = test: Antibacterial activity against ceftazidime-susceptible Klebsiella pneumoniae by CLSI M7-A7 broth microdilution method
Providencia sp. = test: Antibacterial activity against ceftazidime-susceptible Providencia sp. assessed as susceptible isolates by CLSI M7-A7 broth microdilution method
Staphylococcus aureus [6] = test: Antibacterial activity against methicillin-susceptible Staphylococcus aureus assessed as susceptible isolates by CLSI M7-A7 broth microdilution method
Acinetobacter [7] = test: Antibacterial activity against multidrug-resistant Acinetobacter assessed as susceptible isolates by CLSI M7-A7 broth microdilution method
Enterobacteriaceae [8] = test: Antibacterial activity against ceftazidime-nonsusceptible Enterobacteriaceae by CLSI M7-A7 broth microdilution method
Streptococcus pyogenes [9] = test: Antibacterial activity against erythromycin-susceptible Streptococcus pyogenes by CLSI M7-A7 broth microdilution method
Enterococcus faecium = test: Antibacterial activity against vancomycin-resistant Enterococcus faecium by CLSI M7-A7 broth microdilution method
Enterobacteriaceae [10] = test: Antibacterial activity against ceftazidime-nonsusceptible Enterobacteriaceae assessed as susceptible isolates by CLSI M7-A7 broth microdilution method
Staphylococcus aureus [11] = test: Antibacterial activity against coagulase-negative and oxacillin-resistant Staphylococcus aureus assessed as resistant isolates by CLSI M7-A7 broth microdilution method
Enterobacter cloacae [12] = test: Antibacterial activity against ceftazidime-susceptible Enterobacter cloacae assessed as susceptible isolates by CLSI M7-A7 broth microdilution method
Escherichia coli [13] = test: Antibacterial activity against ceftazidime-susceptible Escherichia coli by CLSI M7-A7 broth microdilution method
Streptococcus pyogenes [14] = test: Antibacterial activity against erythromycin-nonsusceptible Streptococcus pyogenes by CLSI M7-A7 broth microdilution method
Staphylococcus aureus [15] = test: Antibacterial activity against coagulase-negative and oxacillin-susceptible Staphylococcus aureus assessed as susceptible isolates by CLSI M7-A7 broth microdilution method
Acinetobacter [16] = test: Antibacterial activity against imipenem-susceptible Acinetobacter by CLSI M7-A7 broth microdilution method
Staphylococcus aureus [17] = test: Antibacterial activity against coagulase-negative and oxacillin-resistant Staphylococcus aureus by CLSI M7-A7 broth microdilution method
Acinetobacter [18] = test: Antibacterial activity against imipenem-susceptible Acinetobacter assessed as resistant isolates by CLSI M7-A7 broth microdilution method
Proteus mirabilis = test: Antibacterial activity against ceftazidime-susceptible Proteus mirabilis by CLSI M7-A7 broth microdilution method
Streptococcus pneumoniae [19] = test: Antibacterial activity against penicillin-susceptible Streptococcus pneumoniae by CLSI M7-A7 broth microdilution method
Haemophilus influenzae [20] = test: Antibacterial activity against beta lactamase-positive Haemophilus influenzae assessed as susceptible isolates by CLSI M7-A7 broth microdilution method
Haemophilus influenzae [21] = test: Antibacterial activity against beta lactamase-negative Haemophilus influenzae assessed as susceptible isolates by CLSI M7-A7 broth microdilution method
Enterobacter cloacae [22] = test: Antibacterial activity against ceftazidime-nonsusceptible Enterobacter cloacae assessed as susceptible isolates by CLSI M7-A7 broth microdilution method
Staphylococcus aureus [23] = test: Antibacterial activity against methicillin-resistant Staphylococcus aureus assessed as resistant isolates by CLSI M7-A7 broth microdilution method
Morganella morganii [24] = test: Antibacterial activity against ceftazidime-susceptible Morganella morganii by CLSI M7-A7 broth microdilution method
Streptococcus agalactiae [25] = test: Antibacterial activity against erythromycin-susceptible Streptococcus agalactiae by CLSI M7-A7 broth microdilution method
Acinetobacter [26] = test: Antibacterial activity against imipenem-susceptible Acinetobacter assessed as susceptible isolates by CLSI M7-A7 broth microdilution method
Citrobacter freundii = test: Antibacterial activity against ceftazidime-susceptible Citrobacter freundii assessed as susceptible isolates by CLSI M7-A7 broth microdilution method
Morganella morganii [27] = test: Antibacterial activity against ceftazidime-susceptible Morganella morganii assessed as resistant isolates by CLSI M7-A7 broth microdilution method
Streptococcus agalactiae [28] = test: Antibacterial activity against erythromycin-nonsusceptible Streptococcus agalactiae by CLSI M7-A7 broth microdilution method
Klebsiella pneumoniae [29] = test: Antibacterial activity against ceftazidime-susceptible Klebsiella pneumoniae assessed as resistant isolates by CLSI M7-A7 broth microdilution method
Enterococcus faecalis = test: Antibacterial activity against vancomycin-resistant Enterococcus faecalis by CLSI M7-A7 broth microdilution method
Staphylococcus aureus [30] = test: Antibacterial activity against methicillin-susceptible Staphylococcus aureus by CLSI M7-A7 broth microdilution method
Enterobacter cloacae [31] = test: Antibacterial activity against ceftazidime-nonsusceptible Enterobacter cloacae by CLSI M7-A7 broth microdilution method
Serratia marcescens [32] = test: Antibacterial activity against ceftazidime-susceptible Serratia marcescens assessed as resistant isolates by CLSI M7-A7 broth microdilution method
Serratia marcescens [33] = test: Antibacterial activity against ceftazidime-susceptible Serratia marcescens by CLSI M7-A7 broth microdilution method
Acinetobacter [34] = test: Antibacterial activity against multidrug-resistant Acinetobacter by CLSI M7-A7 broth microdilution method
Streptococcus pneumoniae [35] = test: Antibacterial activity against penicillin-resistant Streptococcus pneumoniae by CLSI M7-A7 broth microdilution method
Streptococcus viridans = test: Antibacterial activity against penicillin-susceptible Streptococcus viridans by CLSI M7-A7 broth microdilution method
Escherichia coli [36] = test: Antibacterial activity against ceftazidime-nonsusceptible Escherichia coli by CLSI M7-A7 broth microdilution method

Compound: CC(C)(O/N=C(\C(=O)N[C@@H]1C(=O)N2C(C(=O)[O-])=C(C[n+]3ccccc3)CS[C@H]12)c1csc(N)n1)C(=O)O [CEFTAZIDIME]
- Activity (Staphylococcus aureus [1]): 1.7%
- MIC (Moraxella catarrhalis [2]): ≤ 1 µg/mL
- MIC50 (Moraxella catarrhalis [2]): ≤ 1 µg/mL
- MIC90 (Moraxella catarrhalis [2]): ≤ 1 µg/mL
- Activity (Escherichia coli [3]): 100%
- Activity (Moraxella catarrhalis [4]): 100%
- MIC50 (Klebsiella pneumoniae [5]): 0.12 µg/mL (≈ 0.22 µM)
- MIC90 (Klebsiella pneumoniae [5]): 0.25 µg/mL (≈ 0.457 µM)
- Activity (Providencia sp.): 100%
- Activity (Staphylococcus aureus [6]): 92%
- Activity (Acinetobacter [7]): 0%
- MIC50 (Enterobacteriaceae [8]): > 32 µg/mL
- MIC90 (Enterobacteriaceae [8]): > 32 µg/mL
- MIC (Streptococcus pyogenes [9]): ≤ 1 µg/mL
- MIC50 (Streptococcus pyogenes [9]): ≤ 1 µg/mL
- MIC90 (Streptococcus pyogenes [9]): ≤ 1 µg/mL
- MIC (Enterococcus faecium): > 32 µg/mL
- MIC50 (Enterococcus faecium): > 32 µg/mL
- MIC90 (Enterococcus faecium): > 32 µg/mL
- Activity (Enterobacteriaceae [10]): 0%
- Activity (Staphylococcus aureus [11]): 66.2%
- Activity (Enterobacter cloacae [12]): 100%
- MIC50 (Escherichia coli [13]): 0.12 µg/mL (≈ 0.22 µM)
- MIC90 (Escherichia coli [13]): 0.25 µg/mL (≈ 0.457 µM)
- MIC (Streptococcus pyogenes [14]): ≤ 1 µg/mL
- MIC50 (Streptococcus pyogenes [14]): ≤ 1 µg/mL
- MIC90 (Streptococcus pyogenes [14]): ≤ 1 µg/mL
- Activity (Staphylococcus aureus [15]): 93.5%
- MIC50 (Acinetobacter [16]): 4 µg/mL (≈ 7.32 µM)
- MIC90 (Acinetobacter [16]): > 32 µg/mL
- MIC50 (Staphylococcus aureus [17]): 32 µg/mL (≈ 58.5 µM)
- MIC90 (Staphylococcus aureus [17]): > 32 µg/mL
- Activity (Acinetobacter [18]): 31.9%
- MIC50 (Proteus mirabilis): 0.06 µg/mL (≈ 0.11 µM)
- MIC90 (Proteus mirabilis): 0.12 µg/mL (≈ 0.22 µM)
- MIC (Streptococcus pneumoniae [19]): ≤ 1 µg/mL
- MIC50 (Streptococcus pneumoniae [19]): ≤ 1 µg/mL
- MIC90 (Streptococcus pneumoniae [19]): ≤ 1 µg/mL
- Activity (Haemophilus influenzae [20]): 98%
- Activity (Haemophilus influenzae [21]): 98.5%
- Activity (Enterobacter cloacae [22]): 0%
- Activity (Staphylococcus aureus [23]): 54%
- MIC50 (Morganella morganii [24]): 0.06 µg/mL (≈ 0.11 µM)
- MIC90 (Morganella morganii [24]): 4 µg/mL (≈ 7.32 µM)
- MIC (Streptococcus agalactiae [25]): ≤ 1 µg/mL
- MIC50 (Streptococcus agalactiae [25]): ≤ 1 µg/mL
- MIC90 (Streptococcus agalactiae [25]): ≤ 1 µg/mL
- Activity (Acinetobacter [26]): 63.8%
- Activity (Citrobacter freundii): 100%
- Activity (Morganella morganii [27]): 0%
- MIC (Streptococcus agalactiae [28]): ≤ 1 µg/mL
- MIC50 (Streptococcus agalactiae [28]): ≤ 1 µg/mL
- MIC90 (Streptococcus agalactiae [28]): ≤ 1 µg/mL
- Activity (Klebsiella pneumoniae [29]): 0%
- MIC50 (Enterococcus faecalis): > 32 µg/mL
- MIC90 (Enterococcus faecalis): > 32 µg/mL
- MIC50 (Staphylococcus aureus [30]): 8 µg/mL (≈ 14.6 µM)
- MIC90 (Staphylococcus aureus [30]): 8 µg/mL (≈ 14.6 µM)
- MIC50 (Enterobacter cloacae [31]): > 32 µg/mL
- MIC90 (Enterobacter cloacae [31]): > 32 µg/mL
- Activity (Serratia marcescens [32]): 0%
- MIC50 (Serratia marcescens [33]): 0.12 µg/mL (≈ 0.22 µM)
- MIC90 (Serratia marcescens [33]): 1 µg/mL (≈ 1.83 µM)
- MIC50 (Acinetobacter [34]): > 32 µg/mL
- MIC90 (Acinetobacter [34]): > 32 µg/mL
- MIC50 (Streptococcus pneumoniae [35]): 16 µg/mL (≈ 29.3 µM)
- MIC90 (Streptococcus pneumoniae [35]): 32 µg/mL (≈ 58.5 µM)
- MIC (Streptococcus viridans): ≤ 1 µg/mL
- MIC50 (Streptococcus viridans): ≤ 1 µg/mL
- MIC90 (Streptococcus viridans): 4 µg/mL (≈ 7.32 µM)
- MIC50 (Escherichia coli [36]): > 32 µg/mL
- MIC90 (Escherichia coli [36]): > 32 µg/mL
